Our source for the log reduction values is patent US7494980B2, “Antimicrobial peptide and methods of use thereof” (The United States of America as represented by the …, priority 2003, dated 2009).

Where only a bound is given, the exact number is not on record here.

The assay concerns saliva bacteria (facultative anaerobic oral bacteria collected from saliva). Briefly: In vitro killing of saliva bacteria. Type of assay: cell-based. The following applies: 0.5 h; chlorhexidine 0.12%, positive control; data not shown; read-out: log reduction in facultative anaerobic saliva organisms. As for the experimental part:
The killing assay of saliva bacteria was done according to procedures established by Helmerhorst et al. (1999). Unstimulated saliva was collected from four healthy individuals who had refrained from eating for at least 2 hours. The study was approved by the Institutional Review Board of the Walter Reed Army Institute of Research and informed consent and sample donation consent were obtained from all volunteers. Pooled saliva was initially spun at 500 r.p.m. in an Eppendorf centrifuge (model 5810R) for 10 min at 4° C. to remove epithelial cells and mucus. Saliva bacteria were collected by spinning the supernatant at 4000 r.p.m. for 15 min at 4° C. The pellet was washed three times in 10 mM potassium phosphate buffer (PPB) and suspended in the same buffer to give approximately 1.0×10^7 cells ml^−1. Bacterial suspension (250 μl) was mixed with 250 μl peptide to obtain final peptide concentrations of 12.5, 25, 50, 100 and 200 μg ml^−1. After incubation of the mixture at 37° C. for 30 min, cells were spun down to remove KSL, washed once in PBS having a pH of 7.4 and suspended in PBS before spiral-plating 50 μl of the treated and untreated cells in different dilutions on BAP. The negative control was exposed to buffer only. Saliva bacteria exposed to 0.12% aqueous chlorhexidine served as positive controls. […]

Take `[H]/N=C(\N/C(=N/[H])NCCCCCCNC(=N)NC(=N)Nc1ccc(Cl)cc1)Nc1ccc(Cl)cc1` [chlorhexidine, reference compound]: the log reduction at 0.12 % was more than 3.
